Measured values reported in PubChem BioAssay AID296 (DTP/NCI, 2004).
Where “and” joins values, the source holds several entries; their conditions need not be identical. Equal values may be shown once. Records with an inconclusive call do not appear.

Tested on: MX-1 breast xenograft, nude mice, tumor weight T/C
Assay: NCI In Vivo Anticancer Drug Screen. Data for tumor model Human Mammary Carcinoma MX-1 Xenograft (intrarenal inoculation) in NU/NU Swiss (nude) mice
Conditions: endpoint: mean tumor weight change, higher = larger tumour
Outline: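 Read-out: treated (T) over vehicle control (C) ratio of survival or tumor size. Dosing in animals carrying the transplanted tumor.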

Compound: O=NN(CCCl)C(=O)NC1CCCCC1
- T/C (dose: 4.0 mg/kg/injection, schedule: Q01DX010 (sc), vehicle: saline with Tween-80): 109 % of control
- T/C (dose: 8.0 mg/kg/injection, schedule: Q04DX003 (sc), vehicle: Klucel (hydroxypropylcellulose) (HPC)): 88 % of control and 92 % of control
- T/C (dose: 8.0 mg/kg/injection, schedule: Q04DX003 (sc), vehicle: carboxymethylcellulose (CMC)): 89 % of control
- T/C (dose: 12.5 mg/kg/injection, schedule: Q04DX003 (sc), vehicle: Klucel (hydroxypropylcellulose) (HPC)): 59 % of control
- T/C (dose: 16.0 mg/kg/injection, schedule: Q01DX010 (sc), vehicle: saline with Tween-80): 28 % of control
- T/C (dose: 16.0 mg/kg/injection, schedule: Q04DX003 (sc), vehicle: carboxymethylcellulose (CMC)): 85 % of control
- T/C (dose: 25.0 mg/kg/injection, schedule: Q04DX003 (sc), vehicle: Klucel (hydroxypropylcellulose) (HPC)): 92 % of control and 213 % of control
- T/C (dose: 32.0 mg/kg/injection, schedule: Q04DX003 (sc), vehicle: carboxymethylcellulose (CMC)): 77 % of control
- T/C (dose: 64.0 mg/kg/injection, schedule: Q04DX003 (sc), vehicle: Klucel (hydroxypropylcellulose) (HPC)): -95 % of control
- T/C (dose: 64.0 mg/kg/injection, schedule: Q04DX003 (sc), vehicle: carboxymethylcellulose (CMC)): 29 % of control

Compound: Brc1ccc(C[N+]23CN4CN(CN(C4)C2)C3)cc1
- T/C (dose: 75.0 mg/kg/injection, schedule: Q04DX003 (sc), vehicle: saline with Tween-80): 84 % of control
- T/C (dose: 150.0 mg/kg/injection, schedule: Q04DX003 (sc), vehicle: saline with Tween-80): 99 % of control
- T/C (dose: 300.0 mg/kg/injection, schedule: Q04DX003 (sc), vehicle: saline with Tween-80): 89 % of control
- T/C (dose: 600.0 mg/kg/injection, schedule: Q04DX003 (sc), vehicle: saline with Tween-80): 73 % of control

Compound: C/C(=N/NC(N)=S)c1ccc2ccccc2c1
- T/C (dose: 25.0 mg/kg/injection, schedule: Q01DX010 (sc), vehicle: saline with Tween-80): 75 % of control
- T/C (dose: 50.0 mg/kg/injection, schedule: Q01DX010 (sc), vehicle: saline with Tween-80): 81 % of control
- T/C (dose: 100.0 mg/kg/injection, schedule: Q01DX010 (sc), vehicle: saline with Tween-80): 29 % of control

Compound: O=C(CCBr)N1CCN(C(=O)CCBr)CC1
- T/C (dose: 4.5 mg/kg/injection, schedule: Q01DX010 (sc), vehicle: Klucel (hydroxypropylcellulose) (HPC)): 111 % of control
- T/C (dose: 12.5 mg/kg/injection, schedule: Q01DX010 (sc), vehicle: Klucel (hydroxypropylcellulose) (HPC)): 52 % of control
- T/C (dose: 18.0 mg/kg/injection, schedule: Q01DX010 (sc), vehicle: Klucel (hydroxypropylcellulose) (HPC)): 33 % of control and 48 % of control
- T/C (dose: 25.0 mg/kg/injection, schedule: Q01DX010 (sc), vehicle: Klucel (hydroxypropylcellulose) (HPC)): 19 % of control
- T/C (dose: 36.0 mg/kg/injection, schedule: Q01DX010 (sc), vehicle: Klucel (hydroxypropylcellulose) (HPC)): 1 % of control and 9 % of control

Compound: O=C(O)CSc1nc(-c2ccccc2)c(-c2ccccc2)n1-c1ccccn1
- T/C (dose: 50.0 mg/kg/injection, schedule: Q01DX010 (sc), vehicle: water): 196 % of control
- T/C (dose: 100.0 mg/kg/injection, schedule: Q01DX010 (sc), vehicle: water): 50 % of control
- T/C (dose: 200.0 mg/kg/injection, schedule: Q01DX010 (sc), vehicle: water): 78 % of control

Compound: Cc1ccc2c(ccc(CC(=S)[S-])[n+]2C)c1
- T/C (dose: 50.0 mg/kg/injection, schedule: Q01DX010 (sc), vehicle: Klucel (hydroxypropylcellulose) (HPC)): 57 % of control
- T/C (dose: 100.0 mg/kg/injection, schedule: Q01DX010 (sc), vehicle: Klucel (hydroxypropylcellulose) (HPC)): 80 % of control
- T/C (dose: 200.0 mg/kg/injection, schedule: Q01DX010 (sc), vehicle: Klucel (hydroxypropylcellulose) (HPC)): 28 % of control
- T/C (dose: 400.0 mg/kg/injection, schedule: Q01DX010 (sc), vehicle: Klucel (hydroxypropylcellulose) (HPC)): 107 % of control

Compound: COc1cc(OC)c(OC)cc1/C=C\c1ccnc2ccccc12
- T/C (dose: 300.0 mg/kg/injection, schedule: Q04DX003 (sc), vehicle: Klucel (hydroxypropylcellulose) (HPC)): 85 % of control
- T/C (dose: 600.0 mg/kg/injection, schedule: Q04DX003 (sc), vehicle: Klucel (hydroxypropylcellulose) (HPC)): 110 % of control
- T/C (dose: 1200.0 mg/kg/injection, schedule: Q04DX003 (sc), vehicle: Klucel (hydroxypropylcellulose) (HPC)): 99 % of control

Compound: Cc1c2ccncc2c(C)c2c1[nH]c1ccccc12
- T/C (dose: 6.25 mg/kg/injection, schedule: Q01DX010 (sc), vehicle: saline): 63 % of control
- T/C (dose: 50.0 mg/kg/injection, schedule: Q01DX010 (sc), vehicle: suspension in saline): 81 % of control
- T/C (dose: 200.0 mg/kg/injection, schedule: Q01DX010 (sc), vehicle: suspension in saline): 85 % of control

Compound: NCCc1cc(O)c(O)c(O)c1
- T/C (dose: 100.0 mg/kg/injection, schedule: Q04DX003 (sc), vehicle: saline): 59 % of control
- T/C (dose: 200.0 mg/kg/injection, schedule: Q04DX003 (sc), vehicle: saline): 150 % of control
- T/C (dose: 400.0 mg/kg/injection, schedule: Q04DX003 (sc), vehicle: saline): 154 % of control
- T/C (dose: 800.0 mg/kg/injection, schedule: Q04DX003 (sc), vehicle: saline): 72 % of control
